Assay results as given in patent US20240374590A1, “COMPOSITIONS AND METHODS FOR TREATING CANCER” (A2A PHARMACEUTICALS, INC., priority 2021, published 2024).

Experiments:
[1] = tested on: HCT-116 human colon carcinoma cell line; test: Cell viability assay (SRB) in HCT-116; assay type: cell-based; conditions: 72 hours after treatment, read-out: HCT116 IC50
Method: (§1) Human colon carcinoma cell line HCT-116 was a kind gift from Igor Ronninson from University of South Caroli, Columbia, USA. Human breast cancer cell line, JIMT-1 was kindly provided by Ali Osmay Güre from Bilkent University, Ankara, Turkey. Cells were cultured in Dulbecco's modified Eagle's medium (Lonza, NJ, USA), supplemented with 10% fetal bovine serum (FBS, Lonza), 1% non-essential amino acid (NEAA), 2 mM L-glutamine (Sigma Aldrich, MO, USA) and 50 U/ml penicillin/streptomycin (P/S). HCT-116 cells were cultured in McCoy's 5A (modified) (Gibco) medium supplemented with FBS, NEAA, L-glutamine and P/S. All cell lines were tested regularly using MycoAlert Mycoplasma Detection Kit (Lonza). The cumulative length of the cells between thawing and use in the experiments was less than 20 passages.
(§2) Newly synthesized molecules were dissolved in 100% DMSO to yield a stock concentration of 10 mM. For cell viability assay, JIMT-1 (3×10^3 cells/well) and HCT-116 (4×10^3), cells were seeded into 96-well plates, and 24 hours after cell seeding inhibitor treatments were performed at different concentrations. Cell viability was measured 72 hours after treatment with Sulforhodamine B (SRB, Sigma Aldrich) assay as recommended by the manufacturer.

[2] = tested on: JIMT-1 human breast cancer cell line; test: Cell viability assay (SRB) in JIMT-1; assay type: cell-based; conditions: 72 hours after treatment, read-out: JIMT1 IC50
Method: as §1, §2

| IC50 [1] [nM] | IC50 [2] [nM] | SMILES |
| --- | --- | --- |
| 47 | 5 | COc1ccc(-c2cc(Nc3ccnc(N4CCOCC4)n3)[nH]n2)cc1 [Compound 5, N-(3-(4-methoxyphenyl)-1H-pyrazol-5-yl)-2-morpholinopyrimidin-4-amine] |
| 321 | 367 | COc1ccc(-c2cc(Nc3ccnc(N4CCOCC4)n3)[nH]n2)c(Cl)c1 [Compound 27, N-(3-(2-chloro-4-methoxyphenyl)-1H-pyrazol-5-yl)-2-morpholinopyrimidin-4-amine] |
| 36 | 23 | COc1ccc(-c2cc(Nc3ccnc(N4CCOCC4)n3)[nH]n2)c(F)c1 [Compound 56, N-(3-(2-fluoro-4-methoxyphenyl)-1H-pyrazol-5-yl)-2-morpholinopyrimidin-4-amine] |
| 3 | 17 | COc1ccc(-c2cc(Nc3ccnc(N4C[C@@H](C)O[C@@H](C)C4)n3)[nH]n2)cc1 [Compound 59b, 2-((2R,6S)-2,6-dimethylmorpholino)-N-(3-(4-methoxyphenyl)-1H-pyrazol-5-yl)pyrimidin-4-amine] |
| 5 | 25 | COc1ccc(-c2cc(Nc3ccnc(N4CCC(C)CC4)n3)[nH]n2)cc1 [Compound 69, N-(3-(4-methoxyphenyl)-1H-pyrazol-5-yl)-2-(4-methylpiperidin-1-yl)pyrimidin-4-amine] |
| 28 | 26 | COc1ccc(-c2cc(Nc3ccnc(N4CCC(C(F)(F)F)CC4)n3)[nH]n2)cc1 [Compound 70, N-(3-(4-methoxyphenyl)-1H-pyrazol-5-yl)-2-(4-(trifluoromethyl)piperidin-1-yl)pyrimidin-4-amine] |
| 5 | 7 | COc1ccc(-c2cc(Nc3ccnc(N4C[C@@H](C)O[C@@H](C)C4)n3)[nH]n2)cc1F [Compound 86b, 2-((2R,6S)-2,6-dimethylmorpholino)-N-(3-(3-fluoro-4-methoxyphenyl)-1H-pyrazol-5-yl)pyrimidin-4-amine] |
| 25 | 25 | COc1ccc(-c2cc(Nc3ccnc(N4CCC(C)CC4)n3)[nH]n2)cc1F [Compound 87, N-(3-(3-fluoro-4-methoxyphenyl)-1H-pyrazol-5-yl)-2-(4-methylpiperidin-1-yl)pyrimidin-4-amine] |
| 9 | 31 | COc1ccc(-c2cc(Nc3ccnc(N4CCC(C(F)(F)F)CC4)n3)[nH]n2)cc1F [Compound 89, N-(3-(3-fluoro-4-methoxyphenyl)-1H-pyrazol-5-yl)-2-(4-(trifluoromethyl)piperidin-1-yl)pyrimidin-4-amine] |
| 733 | 365 | COc1ccc(-c2cc(Nc3ccnc(N4CC(C)(C)OC(C)(C)C4)n3)[nH]n2)cc1F [Compound 90, N-(3-(3-fluoro-4-methoxyphenyl)-1H-pyrazol-5-yl)-2-(2,2,6,6-tetramethylmorpholino)pyrimidin-4-amine] |
| 488 | 245 | COc1ccc(-c2cc(Nc3ccnc(N4CCOC(C)(C)C4)n3)[nH]n2)cc1F [Compound 92, 2-(2,2-dimethylmorpholino)-N-(3-(3-fluoro-4-methoxyphenyl)-1H-pyrazol-5-yl)pyrimidin-4-amine] |
| 46 | 29 | COc1ccc(-c2cc(Nc3ccnc(N4CCOC(C)C4)n3)[nH]n2)cc1F (stereo not drawn) [Compound 94, N-(3-(3-fluoro-4-methoxyphenyl)-1H-pyrazol-5-yl)-2-(2-methylmorpholino)pyrimidin-4-amine] |
| 89 | 47 | COc1ccc(-c2cc(Nc3ccnc(N4CCOC(C(F)(F)F)C4)n3)[nH]n2)cc1F (stereo not drawn) [Compound 96, N-(3-(3-fluoro-4-methoxyphenyl)-1H-pyrazol-5-yl)-2-(2-(trifluoromethyl)morpholino)pyrimidin-4-amine] |
| 91 | 62 | COc1ccc(-c2cc(Nc3ccnc(N4C[C@@H](C)O[C@H](C)C4)n3)[nH]n2)cc1F [Compound 106, 2-((2R,6R)-2,6-dimethylmorpholino)-N-(3-(3-fluoro-4-methoxyphenyl)-1H-pyrazol-5-yl)pyrimidin-4-amine] |
| 7 | 18 | COc1ccc(-c2cc(Nc3ccnc(N4CCC(C)CC4)n3)[nH]n2)c(F)c1 [Compound 130, N-(3-(2-fluoro-4-methoxyphenyl)-1H-pyrazol-5-yl)-2-(4-methylpiperidin-1-yl)pyrimidin-4-amine] |
| 47 | 53 | COc1ccc(-c2cc(Nc3ccnc(N4CCC(F)CC4)n3)[nH]n2)c(F)c1 [Compound 131, N-(3-(2-fluoro-4-methoxyphenyl)-1H-pyrazol-5-yl)-2-(4-fluoropiperidin-1-yl)pyrimidin-4-amine] |

| IC50 [1] [nM] | IC50 [2] [nM] | SMILES |
| --- | --- | --- |
| 38 | 18 | COc1ccc(-c2cc(Nc3ccnc(N4CCC(C(F)(F)F)CC4)n3)[nH]n2)c(F)c1 [Compound 132, N-(3-(2-fluoro-4-methoxyphenyl)-1H-pyrazol-5-yl)-2-(4-(trifluoromethyl)piperidin-1-yl)pyrimidin-4-amine] |
| 6560 | 606 | COc1ccc(-c2cc(Nc3ccnc(N4CC(C)(C)OC(C)(C)C4)n3)[nH]n2)c(F)c1 [Compound 133, N-(3-(2-fluoro-4-methoxyphenyl)-1H-pyrazol-5-yl)-2-(2,2,6,6-tetramethylmorpholino)pyrimidin-4-amine] |
| 880 | 230 | COc1ccc(-c2cc(Nc3ccnc(N4CCOC(C)(C)C4)n3)[nH]n2)c(F)c1 [Compound 135, 2-(2,2-dimethylmorpholino)-N-(3-(2-fluoro-4-methoxyphenyl)-1H-pyrazol-5-yl)pyrimidin-4-amine] |
| 1300 | 895 | COc1ccc(-c2cc(Nc3ccnc(N4C(C)COCC4C)n3)[nH]n2)c(F)c1 (stereo not drawn) [Compound 136, 2-(3,5-dimethylmorpholino)-N-(3-(2-fluoro-4-methoxyphenyl)-1H-pyrazol-5-yl)pyrimidin-4-amine] |
| 59 | 24 | COc1ccc(-c2cc(Nc3ccnc(N4CCOC(C)C4)n3)[nH]n2)c(F)c1 (stereo not drawn) [Compound 137, N-(3-(2-fluoro-4-methoxyphenyl)-1H-pyrazol-5-yl)-2-(2-methylmorpholino)pyrimidin-4-amine] |
| 52 | 15 | COc1ccc(-c2cc(Nc3ccnc(N4CCOCC4C)n3)[nH]n2)c(F)c1 (stereo not drawn) [Compound 138, N-(3-(2-fluoro-4-methoxyphenyl)-1H-pyrazol-5-yl)-2-(3-methylmorpholino)pyrimidin-4-amine] |
|  | ≥ 10000 | COc1ccc(-c2csc(Nc3ccnc(N4CCOCC4)n3)n2)cc1 [Compound 174, 4-(4-methoxyphenyl)-N-(2-morpholinopyrimidin-4-yl)thiazol-2-amine] |
|  | ≥ 10000 | COc1ccc(-c2coc(Nc3ccnc(N4CCOCC4)n3)n2)cc1 [Compound 177, 4-(4-methoxyphenyl)-N-(2-morpholinopyrimidin-4-yl)oxazol-2-amine] |
| 255 |  | C[C@@H]1CN(c2nccc(Nc3cc(-c4ccc(Cl)cc4)n[nH]3)n2)C[C@H](C)O1 [Compound 197, N-(3-(4-chlorophenyl)-1H-pyrazol-5-yl)-2-((2R,6S)-2,6-dimethylmorpholino)pyrimidin-4-amine] |
| 80 |  | Cc1ccc(-c2cc(Nc3ccnc(N4C[C@@H](C)O[C@@H](C)C4)n3)[nH]n2)cc1 [Compound 198, 2-((2R,6S)-2,6-dimethylmorpholino)-N-(3-(p-tolyl)-1H-pyrazol-5-yl)pyrimidin-4-amine] |
| 90 |  | CCc1ccc(-c2cc(Nc3ccnc(N4C[C@@H](C)O[C@@H](C)C4)n3)[nH]n2)cc1 [Compound 199, 2-((2R,6S)-2,6-dimethylmorpholino)-N-(3-(4-ethylphenyl)-1H-pyrazol-5-yl)pyrimidin-4-amine] |
| 4640 |  | C[C@@H]1CN(c2nccc(Nc3cc(-c4ccc(S(C)(=O)=O)cc4)n[nH]3)n2)C[C@H](C)O1 [Compound 206, 2-((2R,6S)-2,6-dimethylmorpholino)-N-(3-(4-(methylsulfonyl)phenyl)-1H-pyrazol-5-yl)pyrimidin-4-amine] |
| 108 |  | C[C@@H]1CN(c2nccc(Nc3cc(-c4ccc(N5CCCC5)cc4)n[nH]3)n2)C[C@H](C)O1 [Compound 209, 2-((2R,6S)-2,6-dimethylmorpholino)-N-(3-(4-(pyrrolidin-1-yl)phenyl)-1H-pyrazol-5-yl)pyrimidin-4-amine] |
|  | 212 | COc1ccc(-c2cc(Nc3nc(N4C[C@@H](C)O[C@@H](C)C4)ncc3C)[nH]n2)c(F)c1 [Compound 283, 2-((2R,6S)-2,6-dimethylmorpholino)-N-(3-(2-fluoro-4-methoxyphenyl)-1H-pyrazol-5-yl)-5-methylpyrimidin-4-amine] |
|  | 34 | COc1ccc(-c2cc(Nc3cccc(N4CCOCC4)n3)[nH]n2)c(F)c1 [Compound 298, N-(3-(2-fluoro-4-methoxyphenyl)-1H-pyrazol-5-yl)-6-morpholinopyridin-2-amine] |
|  | 53 | C[C@@H]1CN(c2cc(Nc3cc(-c4ccc(OC(F)F)cc4)n[nH]3)ccn2)C[C@H](C)O1 [Compound 308, N-(3-(4-(difluoromethoxy)phenyl)-1H-pyrazol-5-yl)-2-((2R,6S)-2,6-dimethylmorpholino)pyridin-4-amine] |
